The values that follow come from ChEMBL document CHEMBL3098049, “Concise synthesis and biological evaluation of 2-Aroyl-5-amino benzo[b]thiophene derivatives as a novel class of potent antimitotic agents” (J Med Chem, 2013).

The target of this experiment is Tubulin (Homo sapiens) (UniProt P68371+Q9H4B7+P0DPH7+P68366+Q13509+Q71U36+P04350+Q3ZCM7+P07437+P68363+Q9BQE3+Q6PEY2+Q13885+Q9BVA1+Q9BUF5). Nature of the experiment: Displacement of [3H]-colchicine from tubulin (unknown origin) at 5 uM after 10 mins relative to control. In kind it is protein-complex assay. For orientation: Loss of bound radioactivity is the signal in a displacement assay; it reports binding, not function.

`COc1cc(C(=O)c2cc3cc(N)cc(OC)c3s2)cc(OC)c1OC` yielded an inhibition of 97%.

For orientation: inhibition means the relative decrease from the control value, in per cent.
